Assay results from ChEMBL document CHEMBL1201862, “PubChem BioAssay data set” (2004).
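Method: 48-hour compound exposure of cells in 96-well plates, five concentrations, linear interpolation of endpoints. At the GI50, growth is halved.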 Calls of active or inactive are those of the source. No stated cut-off is given here; in the data, active = GI50 up to about 1.1 µM and inactive = higher.

How the values were obtained:
Test in all cases: inhibition of tumour cell growth, NCI panel, 48 h
[1] = tested on: HL-60
[2] = tested on: SF-539
[3] = tested on: SK-MEL-28
[4] = tested on: OVCAR-8
[5] = tested on: OVCAR-3
[6] = tested on: HCC 2998
[7] = tested on: CCRF-CEM
[8] = tested on: PC-3
[9] = tested on: SR
[10] = tested on: EKVX
[11] = tested on: DU-145
[12] = tested on: OVCAR-4
[13] = tested on: U-251
[14] = tested on: KM12
[15] = tested on: ACHN
[16] = tested on: MCF7
[17] = tested on: T47D
[18] = tested on: Malme-3M
[19] = tested on: TK-10
[20] = tested on: MDA-N

Row | SMILES | GI50 [1] | GI50 [2] | GI50 [3] | GI50 [4] | GI50 [5] | GI50 [6] | GI50 [7] | GI50 [8] | GI50 [9] | GI50 [10] | GI50 [11] | GI50 [12] | GI50 [13] | GI50 [14] | GI50 [15] | GI50 [16] | GI50 [17] | GI50 [18] | GI50 [19] | GI50 [20]
1 | O=C(ON=c1c2ccccc2ccc2ccccc12)c1ccccc1 | 6.28 µM (inactive) | 15.5 µM (inactive) | 29.8 µM (inactive) | 27.4 µM (inactive) | 23.5 µM (inactive) | 34 µM (inactive) | 18.8 µM (inactive) | 40.1 µM (inactive) | 8.39 µM (inactive) | 35.7 µM (inactive) | 42.2 µM (inactive) | 28 µM (inactive) | 19.5 µM (inactive) | 11.8 µM (inactive) | 34.9 µM (inactive) | 24 µM (inactive) | 30.3 µM (inactive) | 22.9 µM (inactive) | > 75.9 µM (inactive) | 
2 | O=S(=O)(O)C1=C2Sc3ccccc3N=C2c2ccccc2C1 | 3.76 µM (inactive) | 11.9 µM (inactive) | 17.3 µM (inactive) | 16.9 µM (inactive) | 17.5 µM (inactive) | 12.2 µM (inactive) | 3.43 µM (inactive) |  | 3.14 µM (inactive) | 13.8 µM (inactive) |  | 16.8 µM (inactive) | 12.5 µM (inactive) | 15.8 µM (inactive) | 12.5 µM (inactive) |  |  | 15.8 µM (inactive) | 18.4 µM (inactive) | 
3 | Oc1cc(-c2ccccn2)nc2ccc(Cl)cc12 | 10.9 µM (inactive) | 31.8 µM (inactive) | 34.8 µM (inactive) | 44.2 µM (inactive) |  | 58.9 µM (inactive) | 36.5 µM (inactive) |  | > 100 µM (inactive) | 44 µM (inactive) |  | 47.1 µM (inactive) |  | 24 µM (inactive) | 58.6 µM (inactive) |  |  | 21.7 µM (inactive) | 95.7 µM (inactive) | 
4 | COC(=O)CCC1CCc2c(OC)ccc(OC)c2C1=O (stereo unspecified) | > 100 µM (inactive) | > 100 µM (inactive) | > 100 µM (inactive) | > 100 µM (inactive) | > 100 µM (inactive) | > 100 µM (inactive) | > 100 µM (inactive) |  | > 100 µM (inactive) | > 100 µM (inactive) |  | > 100 µM (inactive) | > 100 µM (inactive) | > 100 µM (inactive) | > 100 µM (inactive) |  |  | > 100 µM (inactive) | > 100 µM (inactive) | 
5 | COC(=O)C12C3C4C1C1C2C3C41C(=O)OC(C)(C)C (stereo unspecified) | > 53.8 µM (inactive) | > 100 µM (inactive) | > 100 µM (inactive) | > 81.3 µM (inactive) | > 100 µM (inactive) |  | > 71.3 µM (inactive) |  | 19.2 µM (inactive) | > 100 µM (inactive) |  | > 100 µM (inactive) | > 100 µM (inactive) | > 100 µM (inactive) | > 100 µM (inactive) |  |  | > 100 µM (inactive) | > 100 µM (inactive) | 
6 | OCC(O)C(OC1OC(CO)C(O)C(O)C1O)c1nn(-c2ccc(Cl)cc2)c2nc3cc(Cl)c(Cl)cc3nc12 (stereo unspecified) |  | > 100 µM (inactive) | > 100 µM (inactive) | > 100 µM (inactive) | > 100 µM (inactive) | > 100 µM (inactive) | > 100 µM (inactive) |  | > 100 µM (inactive) | > 100 µM (inactive) |  | > 100 µM (inactive) | > 100 µM (inactive) | > 100 µM (inactive) | > 100 µM (inactive) |  |  | > 100 µM (inactive) | > 100 µM (inactive) | 
7 | CN(C)c1ccc(-c2[nH]c(=O)c3ccccc3[n+]2C)cc1 | 83.8 µM (inactive) | > 100 µM (inactive) | > 100 µM (inactive) | > 100 µM (inactive) |  | > 100 µM (inactive) | > 100 µM (inactive) |  | 49.4 µM (inactive) | 88.9 µM (inactive) | > 100 µM (inactive) | 60.1 µM (inactive) | > 100 µM (inactive) | 55.5 µM (inactive) | 62.5 µM (inactive) | 46.7 µM (inactive) | 41.3 µM (inactive) | 47.6 µM (inactive) | > 100 µM (inactive) | 
8 | COc1cc2c(cc1OCCCCCOc1cc3c(cc1OC)C(=O)N1CCC[C@H]1C(=O)N3)N=C[C@@H]1CCCN1C2=O | 0.0817 µM (active) | 0.0224 µM (active) | 0.174 µM (active) | 0.225 µM (active) | 0.165 µM (active) | < 0.01 µM (active) | < 0.01 µM (active) | 0.256 µM (active) | < 0.01 µM (active) | 0.279 µM (active) | 0.78 µM (active) | 0.198 µM (active) | 0.0225 µM (active) | 0.18 µM (active) | 0.206 µM (active) | 0.0229 µM (active) | 0.0336 µM (active) | 0.161 µM (active) | 0.111 µM (active) | 
9 | CC(=O)OC12c3ccccc3C(c3ccccc31)C1C(=O)N(c3ccccn3)C(=O)C12 (stereo unspecified) | 33.5 µM (inactive) | > 100 µM (inactive) | 85.9 µM (inactive) | > 100 µM (inactive) | 28.4 µM (inactive) | 72.6 µM (inactive) | 57.1 µM (inactive) | 47.9 µM (inactive) |  | > 100 µM (inactive) | > 100 µM (inactive) | > 100 µM (inactive) | > 100 µM (inactive) | 50.1 µM (inactive) |  | > 100 µM (inactive) | 53.3 µM (inactive) | 31.8 µM (inactive) | > 100 µM (inactive) | 
10 | N#CC12Cc3ccc4c(c3-c3cccc(c31)CCN2C(=O)c1ccccc1)OCO4 (stereo unspecified) | > 100 µM (inactive) | > 100 µM (inactive) | > 100 µM (inactive) | > 100 µM (inactive) | > 100 µM (inactive) | > 100 µM (inactive) | > 100 µM (inactive) |  | > 100 µM (inactive) | > 100 µM (inactive) |  |  | > 100 µM (inactive) | > 100 µM (inactive) | 71.8 µM (inactive) |  |  | 64 µM (inactive) | > 100 µM (inactive) | 
11 | CCOC(=O)c1cn(C)nc1N/C(C)=C\C(=O)c1ccccc1 | > 100 µM (inactive) | 83.2 µM (inactive) | > 100 µM (inactive) | > 100 µM (inactive) | > 100 µM (inactive) | > 100 µM (inactive) | > 100 µM (inactive) | > 100 µM (inactive) | > 100 µM (inactive) | > 100 µM (inactive) | > 100 µM (inactive) | > 100 µM (inactive) | > 100 µM (inactive) | > 100 µM (inactive) | > 100 µM (inactive) | > 100 µM (inactive) | > 100 µM (inactive) | > 100 µM (inactive) | > 100 µM (inactive) | 
12 | CN(C)C(=O)C(F)(F)C(c1ccccc1Br)C1C(=O)N(C)C(=O)N(C)C1=O (stereo unspecified) |  |  | > 100 µM (inactive) | > 100 µM (inactive) | > 100 µM (inactive) | > 100 µM (inactive) | > 100 µM (inactive) | > 100 µM (inactive) |  | > 100 µM (inactive) | > 100 µM (inactive) | > 100 µM (inactive) | > 100 µM (inactive) | > 100 µM (inactive) | > 100 µM (inactive) | > 100 µM (inactive) | > 100 µM (inactive) | > 100 µM (inactive) | > 100 µM (inactive) | 
13 | [N-]=[N+]=NC1C2CC3CC(C2)CC1C3 (stereo unspecified) |  | > 100 µM (inactive) | > 100 µM (inactive) | > 100 µM (inactive) | > 100 µM (inactive) | > 100 µM (inactive) | > 100 µM (inactive) |  | > 100 µM (inactive) | > 100 µM (inactive) |  | > 100 µM (inactive) | > 100 µM (inactive) | > 100 µM (inactive) | > 100 µM (inactive) |  |  | > 100 µM (inactive) | > 100 µM (inactive) | 
14 | O/N=C/c1cc2c(cc1Br)OCO2 | > 100 µM (inactive) | > 100 µM (inactive) |  | > 100 µM (inactive) | > 100 µM (inactive) | > 100 µM (inactive) | > 100 µM (inactive) |  | > 100 µM (inactive) | > 100 µM (inactive) |  | > 100 µM (inactive) | > 100 µM (inactive) | > 100 µM (inactive) | > 100 µM (inactive) |  |  | > 100 µM (inactive) | > 100 µM (inactive) | 
15 | COc1cc([C@@H]2c3cc4c(cc3[C@@H](NC(=O)c3cccc([N+](=O)[O-])c3)C3COC(=O)[C@@H]32)OCO4)cc(OC)c1O (stereo partly specified) | 0.274 µM (active) | 0.294 µM (active) | 3.27 µM (inactive) | 0.721 µM (active) | 3.34 µM (inactive) | 0.608 µM (active) | 0.0376 µM (active) |  |  | 1.25 µM (inactive) |  | 10.5 µM (inactive) | 0.166 µM (active) | 1.47 µM (inactive) | 0.128 µM (active) |  |  | 0.543 µM (active) | 2.25 µM (inactive) | 
16 | Cc1cccc(C)c1NC(=O)C(=O)Cc1nc2ccccc2s1 | > 100 µM (inactive) | > 100 µM (inactive) | > 100 µM (inactive) | > 100 µM (inactive) | > 100 µM (inactive) | > 100 µM (inactive) | > 100 µM (inactive) |  |  | > 100 µM (inactive) |  | > 100 µM (inactive) | > 100 µM (inactive) | > 100 µM (inactive) | > 100 µM (inactive) |  |  | > 100 µM (inactive) | > 100 µM (inactive) | 
17 | C=C[C@@H](C)[C@H](NS(=O)(=O)c1ccc(C)cc1)C(=O)OCC | 57 µM (inactive) | > 100 µM (inactive) | 35.9 µM (inactive) | 40.2 µM (inactive) | 20.7 µM (inactive) |  | 28.2 µM (inactive) | 32.4 µM (inactive) | 30.8 µM (inactive) | 30.8 µM (inactive) | 37.1 µM (inactive) | 27.2 µM (inactive) | 33.5 µM (inactive) | 28.1 µM (inactive) | 35.6 µM (inactive) | 28.8 µM (inactive) |  | 39.7 µM (inactive) | 52.6 µM (inactive) | 28 µM (inactive)
